Measurements as given in patent publication US20230131376A1, “ADJUVANT-ANTIBIOTIC COMBINATION AGAINST GRAM-NEGATIVE BACTERIA” (University of Notre Dame du Lac, priority 2020, published 2023).
Entries after “also recorded” stand apart in the source; their conditions may differ.

Columns and labels:
[1] = test system: Francisella philomiragia; conditions: tested at 50 μM; cited from earlier work
[2] = test system: F. novicida; conditions: tested at 50 μM; cited from earlier work
[3] = test system: E. coli YD626 (parent); test: Colistin potentiation, broth microdilution, E. coli YD626 parent; assay type: cell-based
Description: (§1) Broth microdilution method for antibiotic potentiation.

[4] = test system: A. baumannii 4106; test: Colistin potentiation, chromosomally colistin resistant A. baumannii 4106; assay type: cell-based
Description: as §1

[5] = test system: red blood cells; test: Hemolysis assay; assay type: cell-based, sheep
Procedure: Hemolysis assay. Hemolysis assays were performed on mechanically defibrinated sheep blood (Hemostat Labs: DSB30). Defibrinated blood (1.5 mL) was placed into a microcentrifuge tube and centrifuged for 10 min at 10,000 rpm. The supernatant was then removed, and the cells were resuspended in 1 mL of phosphate-buffered saline (PBS). The suspension was centrifuged, the supernatant was removed, and cells were resuspended two additional times. The final cell suspension was then diluted 10-fold. Test compound solutions were made in PBS in small culture tubes and then added to aliquots of the 10-fold suspension dilution of blood. PBS was used as a negative control and a zero hemolysis marker. Triton X (a 1% sample) was used as a positive control serving as the 100% lysis marker. Samples were then placed in an incubator at 37° C. while being shaken at 200 rpm for one hour. After one hour, the samples were transferred to microcentrifuge tubes and centrifuged for 10 min at 10,000 rpm. The resulting supernatant was diluted by a factor of 40 in distilled water. The absorbance of the supernatant was then measured with a UV spectrometer at a 540 nm wavelength.

[6] = test system: K. pneumoniae B9; test: Colistin potentiation, chromosomally colistin resistant K. pneumoniae B9; assay type: cell-based
Description: as §1

[7] = test system: 4T1 cells; test: MTT cell viability assay; assay type: cell-based, mouse
Procedure: MTT Cell Viability Assay. 4T1 cells (ATCC Manassas, Va.) were plated at a density of 1×10^4 cells/well in 96-well plates. (Roswell Park Memorial Institute Media 1640, Gibco, Gaithersburg, Md.) supplemented with 10% Fetal Bovine Serum (Gibco), 2 mM GlutaMAX (Gibco) and 50 μM 2-mercaptoethanol (Sigma Aldrich St. Louis, Mo.) and incubated at 37° C. under a 5% CO2 atmosphere in the dark for 18 h. Cell cultures were treated with serial dilutions of compounds in the presence or absence of 1 μg/mL colistin (3 replicates per condition) and incubated for an additional 18 hours. The following control conditions were used: media only (blank), 1% Triton X100 (0% cell viability), 0.5% DMSO (100% cell viability). Each condition was then treated with 10% volume of a 5 mg/mL solution of 3-(4,5-dimethylthiazol-2-yl)-2,5-diphenyltetrazolium bromide (MTT) (Sigma Aldrich) in sterile filtered 1× phosphate buffered saline (PBS) and incubated for 2 h. at 37° C. in 5% CO2, after which the media was aspirated and the resulting formazan crystals were resuspended in 100 μL acidified (4 mM HCl) isopropanol. The 96-well plate was then read at 540 nm on a FLUOstar Optima (BMG Labtech Cary, N.C.) microplate reader. Cell viability was calculated as a percentage using the two previously mentioned controls.

[8] = test system: mcr-1 plasmid containing E. coli, K. pneumoniae, and A. baumannii; test: Colistin potentiation stated for all three mcr-1 strains together
[9] = test system: A. baumannii 4106 infection in G. mellonella larvae; test: Galleria mellonella model of A. baumannii infection; assay type: in vivo; conditions: 6×10^5 CFU A. baumannii 4106, day 4
Procedure: Galleria mellonella Assay. G. mellonella larvae (Speedy Worm, Alexandria, Minn.) were used within 10 days of shipment from the vendor. After reception of worms, larvae were kept in the dark at room temperature for at least 24 h. before infection. Larvae weighing between 200 to 300 mg were used in the survival assay. Using a 10 μL glass syringe (Hamilton, Reno, Nev.) fitted with a 30 G needle (Exel International, St. Petersburg, Fla.), a 5 μL solution of the desired compound(s) and concentration(s) were injected into the last left proleg. Colistin was dosed at 50 mg/kg dissolved in DI water, 2-AIs at 50 mg/kg dissolved in DMSO, tigecycline at 100 mg/kg dissolved in DMSO, and DMSO was injected for a negative control. For bacterial injections, 1 mL from an overnight culture of A. baumannii 4106 in Miller LB broth (Fisher Scientific U.S.) was subcultured into 9 mL Miller LB broth and incubated for an additional 3 h before use. The 10 mL solution was centrifuged and washed three times with phosphate buffer solution (PBS, Fisher Scientific U.S.) before diluting to 6×10^5 CFUs in PBS. Then, 2.5 h. after the first injection, a second 5 μL injection containing 6×10^5 CFUs of A. baumannii 4106 was injected into the second to last left proleg. Injected worms were left at room temperature in the dark while being assessed at 24 h intervals over 4 days. […] Experiment was repeated 3 times using 10 larvae per experimental group. No ethics approval was needed for G. mellonella.

[10] = test system: chromosomally colistin resistant K. pneumoniae and A. baumannii strains; test: Colistin potentiation stated for the four chromosomally colistin resistant strains together; assay type: cell-based
Description: as §1

[11] = test system: K. pneumoniae C3; test: Colistin potentiation, chromosomally colistin resistant K. pneumoniae C3; assay type: cell-based
Description: as §1

[12] = test system: A. baumannii 3941; test: Colistin potentiation, chromosomally colistin resistant A. baumannii 3941; assay type: cell-based
Description: as §1

[13] = test system: A. baumannii 17978 +mcr-1; test: Colistin potentiation with detergent (Tween 80); assay type: cell-based; conditions: adjuvant at 30 μM; 0.01% Tween 80
Description: Broth microdilution method for antibiotic potentiation with detergent.

[14] = test system: A. baumannii 4106; test: In vitro MIC of tigecycline; assay type: cell-based; conditions: Acinetobacter baumannii
Procedure: Broth microdilution method for MIC determination. […] Aliquots (1 mL) were placed in culture tubes and compound was added from 10 mM stock samples in DMSO, such that compound concentration equaled highest concentration tested (200 μM). Samples were then aliquoted (200 μL) into the first wells of a 96-well plate, with all remaining wells being filled with 100 μL of initial bacterial subculture. Row one wells were mixed five times, before 100 μL was transferred to row two. […] This process was repeated until the final row had been mixed; this served to serially dilute the compound.

[15] = test system: E. coli YD626 +mcr-1; test: Colistin potentiation, broth microdilution, E. coli YD626 +mcr-1; conditions: no adjuvant
[16] = test system: A. baumannii 17978 (parent); test: Colistin potentiation, broth microdilution, A. baumannii 17978 parent; assay type: cell-based; conditions: no adjuvant
Description: as §1

[17] = test system: K. pneumoniae 2210291 +mcr-1; test: Colistin potentiation, broth microdilution, K. pneumoniae 2210291 +mcr-1; conditions: no adjuvant
[18] = test system: K. pneumoniae 2210291 (parent); test: Colistin potentiation, broth microdilution, K. pneumoniae 2210291 parent; assay type: cell-based; conditions: no adjuvant
Description: as §1

[19] = test system: A. baumannii 17978 +mcr-1; test: Colistin potentiation, broth microdilution, A. baumannii 17978 +mcr-1; conditions: no adjuvant

CCCCc1ccc(C(=O)NCCc2c[nH]c3ccccc23)cc1 [Compound 1a]
fold reduction in the colistin MIC [1]: 32 fold
fold reduction in the colistin MIC [2]: two-fold
fold reduction of colistin MIC ([3]; adjuvant at 50 μM, parent E. coli strain): 16 fold

O=C(NCCc1c[nH]c2ccc(Br)cc12)Nc1cc(Cl)c(Br)c(Cl)c1 [Compound 9e, 1-(2-(5-bromo-1H-indol-3-yl)ethyl)-3-(4-bromo-3,5-dichlorophenyl)urea]
colistin MIC with adjuvant ([4]; adjuvant at 7.5 μM): 1 µg/mL
colistin MIC with adjuvant ([4]; adjuvant at 8 μM): 4 µg/mL
colistin MIC with adjuvant ([4]; adjuvant at 10 μM): 1 µg/mL
fold reduction of colistin MIC ([4]; adjuvant at 10 μM): > 2000 fold
colistin MIC with adjuvant ([4]; adjuvant at 15 μM): 0.5 µg/mL
colistin MIC with adjuvant ([4]; adjuvant at 20 μM): 0.5 µg/mL
toxicity to red blood cells [5]: generally non-toxic
colistin MIC with adjuvant ([6]; adjuvant at 5 μM, K. pneumoniae B9): 0.5 µg/mL
fold reduction of colistin MIC ([6]; adjuvant at 5 μM, a chromosomally resistant K. pneumoniae strain (MIC 512 to 0.5 μg/mL)): 1024 fold
fold reduction of colistin MIC ([6]; adjuvant at 10 μM, K. pneumoniae B9): > 2000 fold
toxicity to the 4T1 cell line [7]: generally non-toxic
CT50, Compound + colistin ([7]; 4T1 cells, 18 h, with 1 μg/mL colistin, concentration giving 50% cell viability): 64.9 µM
CT50, Compound alone ([7]; 4T1 cells, 18 h, without colistin, concentration giving 50% cell viability): 94.1 µM
resensitization to colistin, all three mcr-1 containing strains ([8]; adjuvant at 5 μM): resensitized all three mcr-1 containing bacterial strains to colistin
colistin MIC with adjuvant, all three mcr-1 strains ([8]; adjuvant at 15 μM, susceptibility breakpoint 2 μg/mL): lowered the colistin MIC to the susceptibility breakpoint
survival of inoculated worms after 4 days, combination with colistin ([9]; 50 mg/kg compound paired with 50 mg/kg colistin): 47%
survival of inoculated worms after 4 days, monotherapy ([9]; 50 mg/kg): 0%
resensitization to breakpoint colistin levels, chromosomally resistant strains ([10]; adjuvant at 7.5 μM): resensitized three out of four chromosomally resistant strains; also recorded: resensitized three out of the four strains to breakpoint colistin levels
colistin MIC with adjuvant, all four chromosomally colistin resistant strains (CLSI breakpoint) ([10]; adjuvant at 20 μM): < 2 µg/mL
colistin MIC with adjuvant ([11]; adjuvant at 7.5 μM): 2 µg/mL
colistin MIC with adjuvant ([11]; adjuvant at 8 μM): 2 µg/mL
colistin MIC with adjuvant ([11]; adjuvant at 10 μM): 1 µg/mL
colistin MIC with adjuvant ([11]; adjuvant at 15 μM): 0.5 µg/mL
colistin MIC with adjuvant ([11]; adjuvant at 20 μM): 0.5 µg/mL
colistin MIC with adjuvant ([12]; adjuvant at 7.5 μM): 16 µg/mL
colistin MIC with adjuvant ([12]; adjuvant at 10 μM): 4 µg/mL
colistin MIC with adjuvant ([12]; adjuvant at 15 μM): 4 µg/mL
colistin MIC with adjuvant ([12]; adjuvant at 20 μM): 2 µg/mL
colistin sensitization activity in absence and presence of Tween 80 [13]: equipotent colistin sensitization activity in the absence and presence of Tween 80

CN(C)c1cc(NC(=O)CNC(C)(C)C)c(O)c2c1C[C@H]1C[C@H]3[C@H](N(C)C)C(O)=C(C(N)=O)C(=O)[C@@]3(O)C(O)=C1C2=O [tigecycline, reference compound]
MIC [14]: 8 µg/mL
survival of inoculated worms after 4 days, monotherapy ([9]; 100 mg/kg): 20%

colistin [reference compound]
colistin MIC, colistin alone ([4]; no adjuvant): 1024 µg/mL
colistin MIC, colistin alone [15]: 8 µg/mL
colistin MIC, colistin alone [16]: 2 µg/mL
colistin MIC, colistin alone ([6]; no adjuvant, K. pneumoniae B9): 512 µg/mL
colistin MIC, colistin alone [17]: 16 µg/mL
colistin MIC, colistin alone [18]: 1 µg/mL
survival of inoculated worms after 4 days, monotherapy ([9]; 50 mg/kg): 7%
colistin MIC, colistin alone [19]: 16 µg/mL
colistin MIC, colistin alone ([11]; no adjuvant): 512 µg/mL
colistin MIC, colistin alone ([12]; no adjuvant): 512 µg/mL
colistin MIC, colistin alone ([3]; no adjuvant, E. coli YD626 parent): 1 µg/mL
